Assay results from US5041552A, “Amino acid derivatives with angiotensin II antagonist properties” (Warner-Lambert Company, priority 1990, dated 1991).

Target: T1, angiotensin II receptor (rat liver membranes) (Rattus norvegicus, UniProt P25095)
T1 construct: rat liver membranes; from tissue; host or cells: rat liver membranes
T1 sequence (P25095 1-359): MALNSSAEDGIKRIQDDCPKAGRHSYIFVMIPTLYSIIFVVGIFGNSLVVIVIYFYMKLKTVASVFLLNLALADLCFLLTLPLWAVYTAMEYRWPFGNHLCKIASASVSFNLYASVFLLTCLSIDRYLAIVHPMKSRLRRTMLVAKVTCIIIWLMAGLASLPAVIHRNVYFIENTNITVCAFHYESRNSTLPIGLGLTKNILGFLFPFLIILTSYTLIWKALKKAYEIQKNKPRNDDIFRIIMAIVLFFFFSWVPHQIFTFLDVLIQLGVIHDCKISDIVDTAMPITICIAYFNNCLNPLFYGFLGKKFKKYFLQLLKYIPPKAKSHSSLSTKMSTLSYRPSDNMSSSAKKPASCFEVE
Assay: Receptor Binding of Angiotensin II (RBAT): inhibition of tritiated angiotensin II binding to rat liver membranes
Conditions: in vitro, read-out: RBAT IC50 (concentration required to displace 50% of the specifically bound tritiated angiotensin II)
Description: The effectiveness of the compounds of the instant invention is determined by a test (RBAT) entitled Receptor Binding of Angiotensin II. In this in vitro test the inhibition of tritiated angiotensin II binding to rat liver membranes is measured.
*The IC50 is a concentration required to displace 50% of the specifi
bound tritiated angiotensin II.

Row | Structure (SMILES) | IC50
1 | CCCCc1nc(Cl)c(CO)n1Cc1ccc(NC(=O)C(NC(=O)OC(C)(C)C)C(=O)O)cc1 (racemic) [Example 11] | 6 µM
2 | CCCCc1nc(Cl)c(CO)n1Cc1ccc(NC(=O)[C@H](CC#N)NC(=O)OCc2ccccc2)cc1 [Example 5, (S)-[2-[[4-[[2-Butyl-4-chloro-5-(hydroxymethyl)-1H-imidazol-1-yl]methyl]phenyl]amino]-1-(cyanomethyl)-2-oxoethyl]-carbamic acid, phenylmethyl ester] | 3 µM
3 | CCCCc1nc(Cl)c(CO)n1Cc1ccc(NC(=O)[C@H](CC(=O)OC(C)(C)C)NC(=O)OCc2ccccc2)cc1 [Example 7] | 4 µM
4 | CCCCc1nc(Cl)c(CO)n1Cc1ccc(NC(=O)[C@H](Cc2ccc(O)cc2)NC(=O)OC(C)(C)C)cc1 [6 (4-Chloro), (S)-[2-[[4-[[2-Butyl-4-chloro-5-(hydroxymethyl)-1H-imidazol-1-yl]methyl]phenyl]amino]-1-[(4-hydroxyphenyl)methyl]-2-oxoethyl]-carbamic acid, 1,1-dimethylethyl ester] | 3 µM
5 | CCSc1nnc(CO)n1Cc1ccc(NC(=O)[C@H](CC(=O)O)NC(=O)OCc2ccccc2)cc1 [Example 9] | > 10 µM
6 | CCCCc1ncc(CO)n1Cc1ccc(NC(=O)[C@H](Cc2ccc(O)cc2)NC(=O)OC(C)(C)C)cc1 [Example 6, (S)-[2-[[4-[[2-butyl-5-(hydroxymethyl)-1H-imidazol-1-yl]methyl]phenyl]amino]-1-[(4-hydroxyphenyl)methyl]-2-oxoethyl]-carbamic acid, 1,1-dimethylethylester] | 4.5 µM

The remaining lines, values ahead:

Row | IC50 | Structure (SMILES)
7 | > 10 µM | CCCCc1nc(Cl)c(CO)n1Cc1ccc(NC(=O)N2CCC[C@H]2C(=O)OC)cc1 [Example 18, 1-[[4-[[2-Butyl-4-chloro-5-(hydroxymethyl)-1H-imidazol-1-yl]methyl]phenyl]amino]carbonyl-2-pyrrolidinecarboxylic acid, methyl ester]
8 | 2.5 µM | CCCCc1nc(Cl)c(CO)n1Cc1ccc(NC(=O)[C@H](Cc2ccccc2)NS(=O)(=O)N2CCOCC2)cc1 [Example 16]
9 | 10 µM | CCCCc1nc(Cl)c(CO)n1Cc1ccc(NC(=O)C(NC(=O)OCc2ccccc2)C(=O)O)cc1 (racemic) [Example 13, (RS)-3-[[4-[[2-Butyl-4-chloro-5-(hydroxymethyl)-1H-imidazol-1-yl-methyl]phenyl]amino]-3-oxo-2[(phenyl-methoxy)-carbonyl]amino]-propanoic acid]
10 | 3.6 µM | CCCCc1nc(Cl)c(CO)n1Cc1ccc(NC(=O)[C@H](Cc2ccccc2)NS(=O)(=O)c2ccccc2)cc1 [Example 17]
